Test results taken from ChEMBL document CHEMBL4002566, “S-substituted 3,5-dinitrophenyl 1,3,4-oxadiazole-2-thiols and tetrazole-5-thiols as highly efficient antitubercular agents” (Eur J Med Chem, 2017).
In brackets after ≈: the same amount, converted by molar mass.

Tests used:
Type in all cases: functional
[1] = system: Mycobacterium tuberculosis; assay: Antimycobacterial activity against Mycobacterium tuberculosis H37Rv by broth microdilution method
[2] = system: Mycobacterium tuberculosis; assay: Antimycobacterial activity against Mycobacterium tuberculosis MDR_CHUV by resazurin reduction microplate assay
[3] = system: Mycobacterium tuberculosis; assay: Antimycobacterial activity against Mycobacterium tuberculosis H37Rv after 7 days by resazurin reduction microplate assay; settings: 168 h

C[C@H]1COC2(CCN(c3nc(=O)c4cc(C(F)(F)F)cc([N+](=O)[O-])c4s3)CC2)O1 [BTZ-043]
MIC [1]: 1 nM (≈ 0.431 ng/mL)

O=c1nc(N2CCN(CC3CCCCC3)CC2)sc2c([N+](=O)[O-])cc(C(F)(F)F)cc12 [MACOZINONE]
MIC [2]: 0.4 nM (≈ 0.183 ng/mL)

Cc1nc2cc(Br)cc([N+](=O)[O-])c2nc1-c1ccccc1
MIC [3]: 3100 nM (≈ 1070 ng/mL)
